The record followed here is the Biogen ADME set (Fang et al. 2023).

For the data set the following is noted: for aqueous solubility: pH 6.8.

The term aqueous solubility denotes how much of the substance goes into solution per volume. Low values mean little dissolved substance, high ones much dissolved substance.

Molecules are shown by their SMILES. ≈ marks a conversion by molar mass, not a printed value. Some results are limits rather than exact numbers.

`CC(C)CNc1nnc(SCc2ccncc2)s1`: the MDR1-MDCK efflux ratio turned out to be 1.03; the intrinsic clearance, human liver microsomes was found to be 30.9 mL/min/kg; the intrinsic clearance, rat liver microsomes is 631 mL/min/kg; the aqueous solubility is 48 µg/mL (≈ 171 µM).
On to `CC(C)(Oc1ccc(-c2cnc(N)c(-c3ccc(Cl)cc3)c2)cc1)C(=O)O`, for which the fraction unbound, human plasma was 0.0007; the fraction unbound, rat plasma is 0.0004; the aqueous solubility is 45.4 µg/mL (≈ 119 µM).
With `O=C(CCc1ccc(-c2ccccc2)o1)N1CCC(n2c(=O)[nH]c3ccccc32)CC1`, the intrinsic clearance, human liver microsomes amounted to 255 mL/min/kg and the intrinsic clearance, rat liver microsomes stood at 1760 mL/min/kg.
In turn, `CC(C)c1ccc(NC(=O)c2ccc3nccnc3c2)cc1` registered an intrinsic clearance, human liver microsomes of 29.1 mL/min/kg; an intrinsic clearance, rat liver microsomes of 608 mL/min/kg; an aqueous solubility of 4.96 µg/mL (≈ 17 µM).
In the case of `CCSCCC(=O)NCCn1nc(C)c(CC)c1C`, the MDR1-MDCK efflux ratio amounted to 2.49; the intrinsic clearance, human liver microsomes turned out to be 146 mL/min/kg; the intrinsic clearance, rat liver microsomes came out at 1540 mL/min/kg.
On to `O=C(NCc1cccnc1)c1cnn(-c2ccccc2)c1`, for which the MDR1-MDCK efflux ratio was determined as 2.46; the intrinsic clearance, human liver microsomes was no more than 4.74 mL/min/kg; the intrinsic clearance, rat liver microsomes was determined as 26.3 mL/min/kg; the aqueous solubility turned out to be 38.3 µg/mL (≈ 138 µM).
`C[C@@H](c1ccccc1)N(C)C(=O)NCCN(C)CCO`: the MDR1-MDCK efflux ratio was determined as 18.4; the intrinsic clearance, human liver microsomes is no more than 4.74 mL/min/kg; the intrinsic clearance, rat liver microsomes turned out to be 1140 mL/min/kg.
In the case of `Cc1[nH]c2ccc(Cl)cc2c1CC(=O)N1CCC(Cc2ncncc2C(N)=O)CC1`, the MDR1-MDCK efflux ratio was 18.6; the intrinsic clearance, human liver microsomes was found to be 357 mL/min/kg; the intrinsic clearance, rat liver microsomes turned out to be 1170 mL/min/kg; the aqueous solubility came to 46.5 µg/mL (≈ 109 µM).
As to `N#Cc1cccnc1Nc1cnn(Cc2ccccc2)c1`, the intrinsic clearance, human liver microsomes was 24.4 mL/min/kg; the intrinsic clearance, rat liver microsomes is 850 mL/min/kg; the aqueous solubility amounted to 3.72 µg/mL (≈ 13.5 µM).
With `CC(C)c1nccn1Cc1nc2ccccc2[nH]1`, the MDR1-MDCK efflux ratio worked out at 24.4; the intrinsic clearance, human liver microsomes is no more than 4.74 mL/min/kg; the intrinsic clearance, rat liver microsomes came to 238 mL/min/kg.
Take `COc1ccc(CNC(=O)c2nnn(-c3ccc(OC)cc3)c2N)cc1`: the MDR1-MDCK efflux ratio stood at 0.513; the intrinsic clearance, human liver microsomes amounted to 7.49 mL/min/kg; the intrinsic clearance, rat liver microsomes worked out at 80.4 mL/min/kg; the aqueous solubility came out at 11.5 µg/mL (≈ 32.7 µM).
As for `COc1cccc(CN(C)c2ncnc3c2CN(C)CC3)c1`, the MDR1-MDCK efflux ratio amounted to 0.754; the intrinsic clearance, human liver microsomes came to 18.6 mL/min/kg; the intrinsic clearance, rat liver microsomes stood at 183 mL/min/kg; the aqueous solubility was 57.7 µg/mL (≈ 193 µM).
Consider `CCN1CCc2c(sc(NC(=O)CS(=O)(=O)c3ccccc3)c2-c2nc3ccccc3s2)C1`, for which the intrinsic clearance, human liver microsomes came to 71.6 mL/min/kg and the intrinsic clearance, rat liver microsomes is 435 mL/min/kg.
For `Cc1cc(NC(=O)CN(C)CCOc2ccccc2)on1`, the MDR1-MDCK efflux ratio came out at 0.516; the intrinsic clearance, human liver microsomes was 166 mL/min/kg; the intrinsic clearance, rat liver microsomes was found to be 622 mL/min/kg.
In turn, `COc1cc2c(cc1OC)CN(CN1C(=O)c3cccc4cccc1c34)CC2` had an intrinsic clearance, human liver microsomes of 131 mL/min/kg; an intrinsic clearance, rat liver microsomes of 504 mL/min/kg; an aqueous solubility of 53.4 µg/mL (≈ 143 µM).
With `Cc1cccc(COc2cccc(/C=C3\C(=O)NN(c4ccccc4)C3=O)c2)c1`, the intrinsic clearance, human liver microsomes came out at 66.3 mL/min/kg; the intrinsic clearance, rat liver microsomes came to 294 mL/min/kg; the aqueous solubility was 5.16 µg/mL (≈ 13.4 µM).
For `O=C(/C=C/N1C[C@H]2C[C@@H]1CN2c1ccccn1)c1ccccc1O`, the MDR1-MDCK efflux ratio worked out at 0.976 and the aqueous solubility came to 42 µg/mL (≈ 131 µM).
Molecule `C[C@H]1O[C@@H](Oc2c(-c3cc(O)c(O)c(O)c3)oc3cc(O)cc(O)c3c2=O)[C@@H](O)[C@H](O)[C@H]1O` returned an intrinsic clearance, human liver microsomes of no more than 4.74 mL/min/kg and an intrinsic clearance, rat liver microsomes of no more than 10.7 mL/min/kg.
Regarding `Cc1cc(C)cc(C(=O)NCCCNc2ncccn2)c1`, the aqueous solubility is 52.5 µg/mL (≈ 185 µM).
Consider `Cc1nc(CC2CCN(S(=O)(=O)c3c(C)noc3C)CC2)cc(NC2CCCC2)n1`, for which the MDR1-MDCK efflux ratio amounted to 11.4; the intrinsic clearance, human liver microsomes was 249 mL/min/kg; the intrinsic clearance, rat liver microsomes was determined as 2420 mL/min/kg; the aqueous solubility came to 60.5 µg/mL (≈ 139 µM).
Consider `Cc1nc(O)cc(C2CCN(c3cnccn3)CC2)n1`, for which the MDR1-MDCK efflux ratio was found to be 42; the intrinsic clearance, human liver microsomes is no more than 4.74 mL/min/kg; the intrinsic clearance, rat liver microsomes amounted to 20.1 mL/min/kg; the aqueous solubility worked out at 50.7 µg/mL (≈ 187 µM).
For the molecule `CCOc1cc(N(C)CC2CCN(C)CC2)ncn1`, the MDR1-MDCK efflux ratio was determined as 1.55; the intrinsic clearance, human liver microsomes was 20.1 mL/min/kg; the intrinsic clearance, rat liver microsomes amounted to 561 mL/min/kg.
Consider `CC(C)(C)c1ccc(C(=O)Nc2cn3cc(-n4ccnc4)ccc3n2)cc1`, for which the MDR1-MDCK efflux ratio worked out at 2.85; the intrinsic clearance, human liver microsomes worked out at 60.4 mL/min/kg; the intrinsic clearance, rat liver microsomes turned out to be 25.6 mL/min/kg; the aqueous solubility is 2.75 µg/mL (≈ 7.65 µM).
Consider `CSc1ccc(NC(=O)Cn2nc(C3CC3)ccc2=O)cc1`, for which the MDR1-MDCK efflux ratio was 1.33; the intrinsic clearance, human liver microsomes worked out at 175 mL/min/kg; the intrinsic clearance, rat liver microsomes came to 611 mL/min/kg; the aqueous solubility turned out to be 4.75 µg/mL (≈ 15.1 µM).
`Nc1nnc(-c2ccc3c(c2)OCCO3)o1`: the MDR1-MDCK efflux ratio is 0.657; the intrinsic clearance, human liver microsomes is no more than 4.74 mL/min/kg; the intrinsic clearance, rat liver microsomes is 61.4 mL/min/kg; the aqueous solubility stood at 23.4 µg/mL (≈ 107 µM).
`CC(C)(C)c1nc(O)c2nnn(C3CCNCC3)c2n1` yielded an intrinsic clearance, human liver microsomes of no more than 4.74 mL/min/kg and an intrinsic clearance, rat liver microsomes of no more than 10.7 mL/min/kg.
On to `O=C(NCc1cccc(O)c1)Nc1ccccc1F`, for which the intrinsic clearance, human liver microsomes was no more than 4.74 mL/min/kg; the intrinsic clearance, rat liver microsomes worked out at 58.9 mL/min/kg; the aqueous solubility came out at 36.4 µg/mL (≈ 140 µM).
Take `OCC1CCCCN1Cc1ccc(Cl)c(Cl)c1` (stereo not given): the MDR1-MDCK efflux ratio amounted to 0.524; the fraction unbound, human plasma stood at 0.246; the fraction unbound, rat plasma amounted to 0.305; the intrinsic clearance, human liver microsomes is no more than 4.74 mL/min/kg. Besides, the intrinsic clearance, rat liver microsomes came out at 299 mL/min/kg and the aqueous solubility is 42 µg/mL (≈ 153 µM).
Regarding `Cc1cccnc1Nc1cccc(C2CCCN(CC(=O)Nc3nccs3)C2)n1` (stereo not given), the MDR1-MDCK efflux ratio is 1.49; the fraction unbound, human plasma is 0.0152; the fraction unbound, rat plasma amounted to 0.0434; the intrinsic clearance, human liver microsomes came out at 89.9 mL/min/kg. This molecule also came in with an intrinsic clearance, rat liver microsomes of 582 mL/min/kg.
As for `Cc1c(Cl)ccc2cc3n(c12)[C@@H](C)CNC3=O`, the MDR1-MDCK efflux ratio is 0.513; the fraction unbound, human plasma was 0.0213; the fraction unbound, rat plasma is 0.0497; the intrinsic clearance, human liver microsomes was found to be 10.8 mL/min/kg. Also, the intrinsic clearance, rat liver microsomes was 70.4 mL/min/kg and the aqueous solubility stood at 33.3 µg/mL (≈ 134 µM).
In turn, `CCCCCCCCc1ccc2c(c1)CC[C@@H](C(N)(CO)CO)C2` returned an aqueous solubility of 0.81 µg/mL (≈ 2.43 µM).
Turning to `CC1(C)CN(C(=O)C2(C(=O)N3CC(C)(C)C3(C)C)CCC2)C1(C)C`, the MDR1-MDCK efflux ratio is 2.4; the intrinsic clearance, human liver microsomes turned out to be 304 mL/min/kg; the intrinsic clearance, rat liver microsomes was 1210 mL/min/kg; the aqueous solubility is 75 µg/mL (≈ 224 µM).
Regarding `CCCN1CCCN(C(=O)c2nc3ccccc3[nH]2)CC1`, the intrinsic clearance, human liver microsomes is 19.2 mL/min/kg; the intrinsic clearance, rat liver microsomes stood at 169 mL/min/kg; the aqueous solubility came out at 49.4 µg/mL (≈ 172 µM).
Turning to `CC(C)(C)c1ccc(CN2CCC(C(N)=O)CC2)cc1`, the MDR1-MDCK efflux ratio stood at 0.975; the intrinsic clearance, human liver microsomes was no more than 4.74 mL/min/kg; the intrinsic clearance, rat liver microsomes stood at 144 mL/min/kg; the aqueous solubility was determined as 47.8 µg/mL (≈ 174 µM).
Consider `Cc1noc2nc(-c3ccccc3F)cc(C(=O)O)c12`, for which the aqueous solubility was determined as 39.1 µg/mL (≈ 144 µM).
In the case of `Cc1cc(C)c(-c2csc(NC(=O)Cn3cnnn3)n2)c(C)c1`, the MDR1-MDCK efflux ratio was determined as 7.69 and the aqueous solubility stood at 0.12 µg/mL (≈ 0.365 µM).
For `CN1CCCN(C(=O)NCCOc2ccc3c(c2)OCO3)CC1`, the MDR1-MDCK efflux ratio worked out at 19.9; the intrinsic clearance, human liver microsomes was no more than 4.74 mL/min/kg; the intrinsic clearance, rat liver microsomes came out at 20.3 mL/min/kg; the aqueous solubility was determined as 70 µg/mL (≈ 218 µM).
Take `N#CCN(CN1C(=O)CC2(CCCC2)C1=O)C1CC1`: the aqueous solubility stood at 38.5 µg/mL (≈ 147 µM).
Regarding `NC(=O)COc1ccccc1-c1ccccc1`, the MDR1-MDCK efflux ratio stood at 0.621; the intrinsic clearance, human liver microsomes was 25.9 mL/min/kg; the intrinsic clearance, rat liver microsomes is 75.6 mL/min/kg; the aqueous solubility was 39 µg/mL (≈ 172 µM).
The matching figures for `CN(C)c1ccc2c(c1)OCCN2C(=O)NCc1cccnc1`: 2.66, 23.6 mL/min/kg, 746 mL/min/kg and 48.1 µg/mL (≈ 154 µM).
Regarding `CNC(=O)Cc1cccc(OCCN2CCCCC2)c1`, the MDR1-MDCK efflux ratio turned out to be 11.8; the intrinsic clearance, human liver microsomes is no more than 4.74 mL/min/kg; the intrinsic clearance, rat liver microsomes came out at 57.3 mL/min/kg.
As to `CNC(=O)c1cccc(Cn2nnc(-c3ccccc3Cl)n2)c1`, the MDR1-MDCK efflux ratio was 9.33; the intrinsic clearance, human liver microsomes worked out at 16.5 mL/min/kg; the intrinsic clearance, rat liver microsomes was 775 mL/min/kg; the aqueous solubility amounted to 22.9 µg/mL (≈ 70 µM).
Turning to `CN(C)S(=O)(=O)Nc1ccc(-n2ncc3ccccc32)cc1`, the MDR1-MDCK efflux ratio stood at 0.562; the intrinsic clearance, human liver microsomes was found to be 21.5 mL/min/kg; the intrinsic clearance, rat liver microsomes was 959 mL/min/kg; the aqueous solubility was 38.9 µg/mL (≈ 123 µM).
In the case of `Cc1cccc(-c2ncc(CNCc3ccccc3-n3cccn3)cn2)c1`, the MDR1-MDCK efflux ratio is 0.593; the intrinsic clearance, human liver microsomes was 303 mL/min/kg; the intrinsic clearance, rat liver microsomes was found to be 3450 mL/min/kg; the aqueous solubility amounted to 22.4 µg/mL (≈ 62.9 µM).
For `O=C(c1cccc(Nc2ncccn2)c1)N1CCOCC(Cc2cccc3ccncc23)C1` (stereo not given), the MDR1-MDCK efflux ratio came out at 28; the intrinsic clearance, human liver microsomes was found to be 281 mL/min/kg; the intrinsic clearance, rat liver microsomes amounted to 1650 mL/min/kg.
For `C=CCn1c(=O)c2cnc(Nc3ccc(N4CCN(C)CC4)cc3)nc2n1-c1cccc(C(C)(C)O)n1`, the MDR1-MDCK efflux ratio was 63.4; the intrinsic clearance, human liver microsomes was 32.7 mL/min/kg; the intrinsic clearance, rat liver microsomes amounted to 67.9 mL/min/kg.
